From patent US20060019270A1, “Global DNA methylation assessment using bisulfite PCR” (Board of Regents The University of Texas System, priority 2004, published 2006)

Columns and labels:
[1] = test system: LINE-1 methylation in Hct116, RKO and SW48 cell lines; assay: LINE-1 methylation assay in cell lines treated with DAC (FIG. 14); assay type: cell-based, human; conditions: compared with untreated
Method: Hct116, RKO and SW48 cell lines were treated with 5-aza-2′deoxycytidine (DAC). The genomic DNA was treated with sodium bisulfite and a non-specific PCR was performed which amplified a pool of LINE-1 repetitive elements. The PCR product was then digested with HinfI, which only cuts repetitive elements that were originally methylated. The LINE-1 PCR assays the methylation of two sites and therefore HinfI can generate five possible digestion products of 285, 247, 166, 128 and 38 bp (not seen). The digested PCR product was separated by polyacrylamide gel electrophoresis and stained with ethidium bromide. The PCR bands were quantitated and the amount of methylation is shown below each gel lane.
Methylation of the L1 promotor was investigated by COBRA assay (Xiong and Laird, 1997), and bisulfite treatment was performed as described above. A […] PCR was carried out in 60 mM Tris-HCl pH=8.8, 15 mM Ammonium Sulfate, 0.5 mM MgCl2, 1 mM dNTP mix, and 1 unit of Taq polymerase. PCR cycling conditions were 95° C. for 30 seconds, 50° C. for 30 seconds, and 72° C. for 30 seconds for 28 cycles. […] Gels were stained with ethidium bromide, imaged, and quantitated in a Bio-Rad Geldoc 2000 imager (Bio-Rad, Hercules, Calif.). […]

[2] = test system: Alu element methylation in Hct116 cells; assay: Bisulfite Alu PCR and pyrosequencing, Hct116 cells treated with DAC; assay type: cell-based, human
Method: Hct116, RKO and SW48, colon cancer cell lines (American Type Culture Collection, Manassas, Va.), were cultured using standard methods. Cells were treated with 5 μM 5-aza-2′deoxycytidine (DAC) for three days prior to being harvested. DNA from cell lines and peripheral blood leukocytes was extracted using phenol-chloroform extraction methods well known to one with skill on the art.
Bisulfite modification of genomic DNA is known in the art (see Clark et. al, 1994). In brief, 1.5 μg prepared 10 mM hydroquinone (Sigma) and 520 μl of 3M Sodium Bisulfite (Sigma) at pH=5.0 were added and mixed. The samples were overlayed with mineral oil to prevent evaporation and incubated at 50° C. for 16 hours. […] Bisulfite treated DNA was stored at −20° C. until ready for use.
The Alu element PCR reaction was modified for pyrosequencing based methylation analysis. […] The PCR product was purified and quantitated using the PSQ HS 96 Pyrosequencing System (Pyrosequencing, Inc.; Westborough, Mass.). […]
Bisulfite Alu PCR products could also be analyzed by pyrosequencing allowing for a rapid analysis of multiple CpG sites. […] This method has the advantage of analyzing several methylation sites, is not restricted to restriction enzyme sites, avoids sequencing multiple clones, and allows accurate quantitation of multiple CpG methylation sites in the same reaction. […]

## Nc1ncn([C@H]2C[C@H](O)[C@@H](CO)O2)c(=O)n1 [decitabine, 5-aza-2′-deoxycytidine]
[1]
  LINE-1 methylation in DAC treated cell lines: lower degree of methylation
[2]; pyrosequencing, untreated about 87%
  Alu methylation after DAC as percent of potential methylation sites: 62%
[2]; untreated 20.2%, SssI maximum 23.2%
  Alu methylation by pyrosequencing after DAC treatment (average of three CpG sites): 14.5%
